# According to ChEMBL document CHEMBL1201861, “Genomics of Drug Sensitity in Cancer screening data, Wellcome Trust Sanger Institute”:
# Experiments:
# Format in all cases: functional, cell-based
# HGC-27 = assay: cells; conditions: Homo sapiens;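 also: growth inhibition of human HGC-27 cells, read out in a cell viability assay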
# Description: SANGER: Inhibition of human HGC-27 cell growth in a cell viability assay.
# MDA-MB-134-VI = assay: cells; conditions: Homo sapiens
# Description: SANGER: Inhibition of human MDA-MB-134-VI cell growth in a cell viability assay.
# CAL-51 = assay: cells; conditions: Homo sapiens;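 also: human CAL-51 cell line, growth inhibition read out via a cell viability assay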
# Description: SANGER: Inhibition of human CAL-51 cell growth in a cell viability assay.
# HLE = assay: cells; conditions: Homo sapiens;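 also: growth inhibition of human HLE cells, read out by a cell viability assay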
# Description: SANGER: Inhibition of human HLE cell growth in a cell viability assay.
# G-361 = assay: cells; conditions: Homo sapiens
# NCI-H1793 = assay: cells; conditions: Homo sapiens;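 also: cell growth inhibition, read out by a cell viability assay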
# Description: SANGER: Inhibition of human NCI-H1793 cell growth in a cell viability assay.
# MRK-nu-1 = assay: cells; conditions: Homo sapiens;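 also: cell viability assay measuring growth suppression of human MRK-nu-1 cells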
# Description: SANGER: Inhibition of human MRK-nu-1 cell growth in a cell viability assay.
# DU-145 = assay: cells; conditions: Homo sapiens
# Description: SANGER: Inhibition of human DU-145 cell growth in a cell viability assay.
# HuP-T3 = assay: cells; conditions: Homo sapiens;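 also: HuP-T3 cell growth inhibition, read out with a cell viability assay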
# Description: SANGER: Inhibition of human HuP-T3 cell growth in a cell viability assay.
# NCI-H345 = assay: cells; conditions: Homo sapiens;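 also: growth inhibition of NCI-H345 cells measured with a cell viability assay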
# Description: SANGER: Inhibition of human NCI-H345 cell growth in a cell viability assay.
# HT-29 = assay: cells; conditions: Homo sapiens;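 also: growth inhibition of human HT-29 cells, read out by a cell viability assay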
# Description: SANGER: Inhibition of human HT-29 cell growth in a cell viability assay.
# LU-99A = assay: cells; conditions: Homo sapiens;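 also: growth inhibition of LU-99A cells, read out with a cell viability assay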
# Description: SANGER: Inhibition of human LU-99A cell growth in a cell viability assay.
# CAL-62 = assay: cells; conditions: Homo sapiens;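 also: growth inhibition of CAL-62 cells, read out with a cell viability assay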
# Description: SANGER: Inhibition of human CAL-62 cell growth in a cell viability assay.
# SW626 = assay: cells; conditions: Homo sapiens;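 also: growth inhibition of SW626 cells, measured with a cell viability assay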
# Description: SANGER: Inhibition of human SW626 cell growth in a cell viability assay.
# HSC-2 = assay: cells; conditions: Homo sapiens;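 also: growth inhibition of human HSC-2 cells, read out by a cell viability assay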
# Description: SANGER: Inhibition of human HSC-2 cell growth in a cell viability assay.
# ESS-1 = assay: cells; conditions: Homo sapiens;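 also: growth inhibition of human ESS-1 cells, read out by a cell viability assay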
# Description: SANGER: Inhibition of human ESS-1 cell growth in a cell viability assay.
# KOSC-2 = assay: cells; conditions: Homo sapiens;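 also: growth inhibition of KOSC-2 cells, read out by a cell viability assay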
# Description: SANGER: Inhibition of human KOSC-2 cell growth in a cell viability assay.
# A673 = assay: cells; conditions: Homo sapiens;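 also: growth inhibition of human A673 cells, read out through a cell viability assay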
# Description: SANGER: Inhibition of human A673 cell growth in a cell viability assay.
# HT-3 = assay: cells; conditions: Homo sapiens;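 also: growth inhibition measured with a cell viability readout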
# Description: SANGER: Inhibition of human HT-3 cell growth in a cell viability assay.
# A-375 = assay: cells; conditions: Homo sapiens;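 also: growth inhibition of A375 cells, read out with a cell viability assay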
# Description: SANGER: Inhibition of human A375 cell growth in a cell viability assay.
# UO-31 = assay: cells; conditions: Homo sapiens
# Description: SANGER: Inhibition of human U031 cell growth in a cell viability assay.
# SW48 = assay: cells; conditions: Homo sapiens;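 also: growth inhibition of SW48 cells, read out with a cell viability assay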
# Description: SANGER: Inhibition of human SW48 cell growth in a cell viability assay.
# KYSE-450 = assay: cells; conditions: Homo sapiens;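 also: cell growth inhibition measured by a viability assay in human KYSE-450 cells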
# Description: SANGER: Inhibition of human KYSE-450 cell growth in a cell viability assay.
# MDA-MB-157 = assay: cells; conditions: Homo sapiens
# Description: SANGER: Inhibition of human MDA-MB-157 cell growth in a cell viability assay.
# NCI-H28 = assay: cells; conditions: Homo sapiens;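 also: growth inhibition of human NCI-H28 cells, read out as cell viability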
# Description: SANGER: Inhibition of human NCI-H28 cell growth in a cell viability assay.
# NCI-H1882 = assay: cells; conditions: Homo sapiens;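 also: growth inhibition of the cell line, determined with a viability assay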
# Description: SANGER: Inhibition of human NCI-H1882 cell growth in a cell viability assay.
# ASPC1 = assay: cells; conditions: Homo sapiens;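 also: growth inhibition of AsPC-1 cells, read out with a cell viability assay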
# Description: SANGER: Inhibition of human AsPC-1 cell growth in a cell viability assay.
# FTC-133 = assay: cells; conditions: Homo sapiens
# HTC-C3 = assay: cells; conditions: Homo sapiens;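 also: inhibition of cell growth, read out with a cell viability assay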
# Description: SANGER: Inhibition of human HTC-C3 cell growth in a cell viability assay.
# RO82-W-1 = assay: cells; conditions: Homo sapiens;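 also: growth inhibition of human RO82-W-1 cells, measured with a cell viability assay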
# Description: SANGER: Inhibition of human RO82-W-1 cell growth in a cell viability assay.
# NCCIT = assay: SANGER: Inhibition of human NCCIT cell growth in a cell viability assay.
# GCT = assay: cells; conditions: Homo sapiens;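 also: GCT cell line proliferation inhibition, read out with a cell viability assay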
# Description: SANGER: Inhibition of human GCT cell growth in a cell viability assay.
# HCC1954 = assay: cells; conditions: Homo sapiens;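 also: growth inhibition of human HCC1954 cells, read out with a cell viability assay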
# Description: SANGER: Inhibition of human HCC1954 cell growth in a cell viability assay.
# SN12C = assay: cells; conditions: Homo sapiens;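 also: growth inhibition of human SN12C cells, measured by a cell viability assay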
# Description: SANGER: Inhibition of human SN12C cell growth in a cell viability assay.
# EVSA-T = assay: cells; conditions: Homo sapiens;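 also: growth inhibition of EVSA-T cells, read out with a cell viability assay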
# Description: SANGER: Inhibition of human EVSA-T cell growth in a cell viability assay.
# SK-MEL-24 = assay: cells; conditions: Homo sapiens;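 also: growth inhibition read out by a cell viability assay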
# Description: SANGER: Inhibition of human SK-MEL-24 cell growth in a cell viability assay.
# SCC-9 = assay: cells; conditions: Homo sapiens;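 also: Read-out is a cell viability assay, with values giving inhibition of cell growth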
# Description: SANGER: Inhibition of human SCC-9 cell growth in a cell viability assay.
# SK-N-AS = assay: cells; conditions: Homo sapiens;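 also: growth inhibition of human SK-N-AS cells, measured with a cell viability assay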
# Description: SANGER: Inhibition of human SK-N-AS cell growth in a cell viability assay.
# NCI-H1792 = assay: cells; conditions: Homo sapiens;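 also: growth inhibition of human NCI-H1792 cells, read out as cell viability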
# Description: SANGER: Inhibition of human NCI-H1792 cell growth in a cell viability assay.
# 23132-87 = assay: cells; conditions: Homo sapiens
# Description: SANGER: Inhibition of human 23132-87 cell growth in a cell viability assay.
# NCI-H1563 = assay: cells; conditions: Homo sapiens;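 also: growth inhibition of human NCI-H1563 cells, read out with a cell viability assay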
# Description: SANGER: Inhibition of human NCI-H1563 cell growth in a cell viability assay.
# HCC70 = assay: cells; conditions: Homo sapiens;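 also: cell viability assay measuring how strongly the compound suppresses proliferation of HCC70 cells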
# Description: SANGER: Inhibition of human HCC70 cell growth in a cell viability assay.
# CaR-1 = assay: cells; conditions: Homo sapiens;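 also: growth inhibition of human CaR-1 cancer cells, read out with a cell viability assay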
# Description: SANGER: Inhibition of human CaR-1 cell growth in a cell viability assay.
# SNU-449 = assay: cells; conditions: Homo sapiens
# Description: SANGER: Inhibition of human SNU-449 cell growth in a cell viability assay.
# CAL-85-1 = assay: cells; conditions: Homo sapiens;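 also: growth inhibition of human CAL-85-1 cells, read out with a cell viability assay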
# Description: SANGER: Inhibition of human CAL-85-1 cell growth in a cell viability assay.
# RPMI-6666 = assay: cells; conditions: Homo sapiens
# Description: SANGER: Inhibition of human RPMI-6666 cell growth in a cell viability assay.
# HOS = assay: cells; conditions: Homo sapiens;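 also: growth inhibition of human HOS cells, read out with a cell viability assay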
# Description: SANGER: Inhibition of human HOS cell growth in a cell viability assay.
# TALL-1 = assay: cells; conditions: Homo sapiens;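 also: growth inhibition of cultured human TALL-1 cells, read out by a cell viability assay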
# Description: SANGER: Inhibition of human TALL-1 cell growth in a cell viability assay.
# SAOS-2 = assay: cells; conditions: Homo sapiens;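 also: growth inhibition of human Saos-2 cells determined by a cell viability assay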
# Description: SANGER: Inhibition of human Saos-2 cell growth in a cell viability assay.
# U-118-MG = assay: cells; conditions: Homo sapiens
# Description: SANGER: Inhibition of human U-118-MG cell growth in a cell viability assay.
# KP-4 = assay: cells; conditions: Homo sapiens;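 also: human KP-4 cells, with growth inhibition read out through a cell viability assay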
# Description: SANGER: Inhibition of human KP-4 cell growth in a cell viability assay.
# IGROV-1 = assay: cells; conditions: Homo sapiens;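 also: reduction of IGROV-1 cell growth, read out with a viability assay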
# Description: SANGER: Inhibition of human IGROV-1 cell growth in a cell viability assay.
# CPC-N = assay: cells; conditions: Homo sapiens;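 also: growth inhibition of CPC-N cells, with a cell viability assay as the readout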
# Description: SANGER: Inhibition of human CPC-N cell growth in a cell viability assay.
# NCI-H2081 = assay: cells; conditions: Homo sapiens;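 also: growth inhibition of human NCI-H2081 cells, read out with a cell viability assay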
# Description: SANGER: Inhibition of human NCI-H2081 cell growth in a cell viability assay.
# HT-1376 = assay: cells; conditions: Homo sapiens
# Description: SANGER: Inhibition of human HT-1376 cell growth in a cell viability assay.
# LN-405 = assay: cells; conditions: Homo sapiens
# Description: SANGER: Inhibition of human LN-405 cell growth in a cell viability assay.
# JIYOYE = assay: cells; conditions: Homo sapiens
# Description: SANGER: Inhibition of human JiyoyeP-2003 cell growth in a cell viability assay.
# A204 = assay: cells; conditions: Homo sapiens;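 also: growth inhibition of human A204 cells, read out with a cell viability assay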
# Description: SANGER: Inhibition of human A204 cell growth in a cell viability assay.
# NCI-H1694 = assay: cells; conditions: Homo sapiens;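 also: cell viability assay measuring inhibition of growth in human NCI-H1694 cells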
# Description: SANGER: Inhibition of human NCI-H1694 cell growth in a cell viability assay.
# RL = assay: cells; conditions: Homo sapiens
# Description: SANGER: Inhibition of human RL cell growth in a cell viability assay.
# MIA PaCa-2 = assay: cells; conditions: Homo sapiens;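 also: growth inhibition of MIA PaCa-2 cells, read out with a cell viability assay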
# Description: SANGER: Inhibition of human MIA-PaCa-2 cell growth in a cell viability assay.
# AU565 = assay: cells; conditions: Homo sapiens;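 also: cell viability assay measuring growth inhibition of human AU565 cells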
# Description: SANGER: Inhibition of human AU565 cell growth in a cell viability assay.
# CWR22R = assay: cells; conditions: Homo sapiens, 22Rv1;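 also: growth inhibition of 22Rv1 cells, read out with a cell viability assay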
# Description: SANGER: Inhibition of human 22RV1 cell growth in a cell viability assay.
compound,measurement,setting,value
C/C(O)=C(\C#N)C(=O)Nc1cc(Br)ccc1Br,IC50,HGC-27,> 16 µM
same,IC50,MDA-MB-134-VI,> 16 µM
same,IC50,CAL-51,> 16 µM
same,IC50,HLE,> 16 µM
same,IC50,G-361,> 16 µM
same,IC50,NCI-H1793,> 16 µM
same,IC50,MRK-nu-1,> 16 µM
same,IC50,DU-145,> 16 µM
same,IC50,HuP-T3,> 16 µM
same,IC50,NCI-H345,> 16 µM
same,IC50,HT-29,> 16 µM
same,IC50,LU-99A,> 16 µM
same,IC50,CAL-62,> 16 µM
same,IC50,SW626,> 16 µM
same,IC50,HSC-2,> 16 µM
same,IC50,ESS-1,> 16 µM
same,IC50,KOSC-2,> 16 µM
same,IC50,A673,> 16 µM
same,IC50,HT-3,> 16 µM
same,IC50,A-375,> 16 µM
same,IC50,UO-31,> 16 µM
same,IC50,SW48,> 16 µM
same,IC50,KYSE-450,> 16 µM
same,IC50,MDA-MB-157,> 16 µM
same,IC50,NCI-H28,> 16 µM
same,IC50,NCI-H1882,> 16 µM
same,IC50,ASPC1,> 16 µM
same,IC50,FTC-133,> 16 µM
same,IC50,HTC-C3,> 16 µM
same,IC50,RO82-W-1,> 16 µM
same,IC50,NCCIT,> 16 µM
same,IC50,GCT,> 16 µM
same,IC50,HCC1954,> 16 µM
same,IC50,SN12C,> 16 µM
same,IC50,EVSA-T,> 16 µM
same,IC50,SK-MEL-24,> 16 µM
same,IC50,SCC-9,> 16 µM
same,IC50,SK-N-AS,> 16 µM
same,IC50,NCI-H1792,> 16 µM
same,IC50,23132-87,> 16 µM
same,IC50,NCI-H1563,> 16 µM
same,IC50,HCC70,> 16 µM
same,IC50,CaR-1,> 16 µM
same,IC50,SNU-449,> 16 µM
same,IC50,CAL-85-1,> 16 µM
same,IC50,RPMI-6666,> 16 µM
same,IC50,HOS,> 16 µM
same,IC50,TALL-1,> 16 µM
same,IC50,SAOS-2,> 16 µM
same,IC50,U-118-MG,> 16 µM
same,IC50,KP-4,> 16 µM
same,IC50,IGROV-1,> 16 µM
same,IC50,CPC-N,> 16 µM
same,IC50,NCI-H2081,> 16 µM
same,IC50,HT-1376,> 16 µM
same,IC50,LN-405,> 16 µM
same,IC50,JIYOYE,> 16 µM
same,IC50,A204,> 16 µM
same,IC50,NCI-H1694,> 16 µM
same,IC50,RL,> 16 µM
same,IC50,MIA PaCa-2,> 16 µM
same,IC50,AU565,> 16 µM
same,IC50,CWR22R,> 16 µM
CC(O)(CS(=O)(=O)c1ccc(F)cc1)C(=O)Nc1ccc(C#N)c(C(F)(F)F)c1 (stereo unspecified) [BICALUTAMIDE],IC50,HGC-27,> 1.02 µM
same,IC50,MDA-MB-134-VI,> 1.02 µM
same,IC50,CAL-51,> 1.02 µM
same,IC50,HLE,> 1.02 µM
same,IC50,G-361,> 1.02 µM
same,IC50,NCI-H1793,> 1.02 µM
same,IC50,MRK-nu-1,> 1.02 µM
same,IC50,DU-145,> 1.02 µM
same,IC50,HuP-T3,> 1.02 µM
same,IC50,NCI-H345,> 1.02 µM
same,IC50,HT-29,> 1.02 µM
same,IC50,LU-99A,> 1.02 µM
same,IC50,CAL-62,> 1.02 µM
same,IC50,SW626,> 1.02 µM
same,IC50,HSC-2,> 1.02 µM
same,IC50,ESS-1,> 1.02 µM
same,IC50,KOSC-2,> 1.02 µM
same,IC50,A673,> 1.02 µM
same,IC50,HT-3,0.731 µM
same,IC50,A-375,> 1.02 µM
same,IC50,UO-31,> 1.02 µM
same,IC50,SW48,> 1.02 µM
same,IC50,KYSE-450,> 1.02 µM
same,IC50,MDA-MB-157,> 1.02 µM
same,IC50,NCI-H28,> 1.02 µM
same,IC50,NCI-H1882,> 1.02 µM
same,IC50,ASPC1,> 1.02 µM
same,IC50,FTC-133,> 1.02 µM
same,IC50,HTC-C3,> 1.02 µM
same,IC50,RO82-W-1,> 1.02 µM
same,IC50,NCCIT,> 1.02 µM
same,IC50,GCT,> 1.02 µM
same,IC50,HCC1954,> 1.02 µM
same,IC50,SN12C,> 1.02 µM
same,IC50,EVSA-T,> 1.02 µM
same,IC50,SK-MEL-24,> 1.02 µM
same,IC50,SCC-9,> 1.02 µM
same,IC50,SK-N-AS,> 1.02 µM
same,IC50,NCI-H1792,> 1.02 µM
same,IC50,23132-87,> 1.02 µM
same,IC50,NCI-H1563,> 1.02 µM
same,IC50,HCC70,> 1.02 µM
same,IC50,CaR-1,> 1.02 µM
same,IC50,SNU-449,> 1.02 µM
same,IC50,CAL-85-1,> 1.02 µM
same,IC50,RPMI-6666,> 1.02 µM
same,IC50,HOS,> 1.02 µM
same,IC50,TALL-1,> 1.02 µM
same,IC50,SAOS-2,> 1.02 µM
same,IC50,U-118-MG,> 1.02 µM
same,IC50,KP-4,> 1.02 µM
same,IC50,IGROV-1,> 1.02 µM
same,IC50,CPC-N,> 1.02 µM
same,IC50,NCI-H2081,> 1.02 µM
same,IC50,HT-1376,> 1.02 µM
same,IC50,LN-405,> 1.02 µM
same,IC50,JIYOYE,> 1.02 µM
same,IC50,A204,> 1.02 µM
same,IC50,NCI-H1694,> 1.02 µM
same,IC50,RL,> 1.02 µM
same,IC50,MIA PaCa-2,> 1.02 µM
same,IC50,AU565,> 1.02 µM
same,IC50,CWR22R,> 1.02 µM
